Laboratory results published in patent US6737383B1, “Herbicidal oxadiazolidines” (priority 1999, dated 2004).

Columns and labels:
pigweed = assay: Test B pre/postemergence pigweed; format: in vivo, Amaranthus retroflexus
Method in brief: (§1)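 Response is a visual 0-to-10 score relative to untreated plants, where 0 means no effect and 10 means complete control, taken twelve to sixteen days after application. Treatments went onto soil at planting and onto foliage of 1- to 4-leaf plants, using a surfactant-containing non-phytotoxic solvent.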

soybean = assay: Test B pre/postemergence soybean; format: in vivo, Glycine max
Method in brief: as §1

sugar beet = assay: Test B pre/postemergence sugar beet; format: in vivo, Beta vulgaris
Method in brief: as §1

purple nutsedge = assay: Test B pre/postemergence purple nutsedge; format: in vivo, Cyperus rotundus
Method in brief: as §1

cocklebur = assay: Test B pre/postemergence cocklebur; format: in vivo, Xanthium strumarium
Method in brief: as §1

bedstraw = assay: Test B pre/postemergence bedstraw; format: in vivo, Galium aparine; conditions: Preemergence; for Bedstraw plant response rating: scale 0 to 10, 0 is no effect, 10 is complete control
Method in brief: as §1

corn = assay: Test B pre/postemergence corn; format: in vivo, Zea mays
Method in brief: as §1

crabgrass = assay: Test B pre/postemergence crabgrass; format: in vivo, Digitaria sanguinalis
Method in brief: as §1

morningglory = assay: Test B pre/postemergence morningglory; format: in vivo, Ipomoea hederacea
Method in brief: as §1

velvetleaf = assay: Test B pre/postemergence velvetleaf; format: in vivo, Abutilon theophrasti
Method in brief: as §1

blackgrass = assay: Test B pre/postemergence blackgrass; format: in vivo, Alopecurus myosuroides
Method in brief: as §1

surinam grass = assay: Test B pre/postemergence surinam grass; format: in vivo, Brachiaria decumbens
Method in brief: as §1

wild oat = assay: Test B pre/postemergence wild oat; format: in vivo, Avena fatua
Method in brief: as §1

wheat = assay: Test B pre/postemergence wheat; format: in vivo, Triticum aestivum
Method in brief: as §1

rape = assay: Test B pre/postemergence rape; format: in vivo, Brassica napus
Method in brief: as §1

giant foxtail = assay: Test B pre/postemergence giant foxtail; format: in vivo, Setaria faberii
Method in brief: as §1

[1] = Postemergence, Rate 62 g/ha, scale of 0 to 10, 0 is no effect, 10 is complete control
[2] = Postemergence, Rate 500 g/ha, scale 0 to 10, 0 is no effect, 10 is complete control
[3] = Preemergence, Rate 62 g/ha, scale of 0 to 10 where 0 is no effect and 10 is complete control
[4] = Preemergence, Rate 500 g/ha, scale of 0 to 10 where 0 is no effect and 10 is complete control
[5] = Postemergence, Rate 125 g/ha, scale 0 to 10, 0 is no effect, 10 is complete control
[6] = Preemergence, Rate 125 g/ha, scale 0 to 10, 0 is no effect, 10 is complete control
[7] = Postemergence, Rate 250 g/ha, scale 0 to 10
[8] = Preemergence, Rate 250 g/ha, scale 0 to 10, 0 is no effect, 10 is complete control

`C=CCCCn1c(=O)on(C(=O)N(c2ccc(F)cc2F)C(C)C)c1=O` [Compound 516] was tested, and the “Redroot pigweed plant response rating” value (pigweed; [1]) was 4, the “Plant response rating, Redroot pigweed” value (pigweed; [2]) was 8 and the “Plant response rating, Redroot pigweed” value (pigweed; [3]) was 7. The “Redroot pigweed plant response rating” value (pigweed; [4]) was 10, the “Soybean plant response rating” value (soybean; [1]) was 4 and the “Soybean plant response rating” value (soybean; [5]) was 4. For the same compound, the “Plant response rating, Soybean” value (soybean; [2]) was 7, the “Plant response rating, Soybean” value (soybean; [3]) was 0 and the “Soybean plant response rating” value (soybean; [6]) was 0. The “Soybean plant response rating” value (soybean; [4]) was 0, the “Sugarbeets plant response rating” value (sugar beet; [1]) was 0 and the “Sugarbeets plant response rating” value (sugar beet; [5]) was 0. For the same compound, the “Plant response rating, Sugarbeets” value (sugar beet; [2]) was 8, the “Plant response rating, Sugarbeets” value (sugar beet; [3]) was 1 and the “Sugarbeets plant response rating” value (sugar beet; [6]) was 3. For the same compound, the “Sugarbeets plant response rating” value (sugar beet; [4]) was 7, the “Nutsedge plant response rating” value (purple nutsedge; [1]) was 0 and the “Nutsedge plant response rating” value (purple nutsedge; [5]) was 0. The “Plant response rating, Nutsedge” value (purple nutsedge; [3]) was 0, the “Nutsedge plant response rating” value (purple nutsedge; [6]) was 0 and the “Nutsedge plant response rating” value (purple nutsedge; [4]) was 0. For the same compound, the “Cocklebur plant response rating” value (cocklebur; [1]) was 2, the “Cocklebur plant response rating” value (cocklebur; [5]) was 3 and the “Cocklebur plant response rating” value (cocklebur; [7]) was 3. The “Plant response rating, Cocklebur” value (cocklebur; [2]) was 5, the “Plant response rating, Cocklebur” value (cocklebur; [3]) was 0 and the “Cocklebur plant response rating” value (cocklebur; [6]) was 0. The “Cocklebur plant response rating” value (cocklebur; [8]) was 0, the “Cocklebur plant response rating” value (cocklebur; [4]) was 0 and the “Plant response rating, Bedstraw” value (bedstraw; Rate 62 g/ha, scale of 0 to 10 where 0 is no effect and 10 is complete control) was 0. The “Bedstraw plant response rating” value (bedstraw; Rate 125 g/ha) was 0, the “Bedstraw plant response rating” value (bedstraw; Rate 250 g/ha) was 1 and the “Bedstraw plant response rating” value (bedstraw; Rate 500 g/ha) was 7. For the same compound, the “Corn plant response rating” value (corn; [1]) was 0, the “Corn plant response rating” value (corn; [5]) was 0 and the “Corn plant response rating” value (corn; [7]) was 0. The “Plant response rating, Corn” value (corn; [2]) was 0, the “Plant response rating, Corn” value (corn; [3]) was 0 and the “Corn plant response rating” value (corn; [6]) was 0. The “Corn plant response rating” value (corn; [4]) was 0, the “Crabgrass plant response rating” value (crabgrass; [1]) was 3 and the “Crabgrass plant response rating” value (crabgrass; [5]) was 9. The “Plant response rating, Crabgrass” value (crabgrass; [2]) was 9, the “Plant response rating, Crabgrass” value (crabgrass; [3]) was 6 and the “Crabgrass plant response rating” value (crabgrass; [6]) was 9. For the same compound, the “Crabgrass plant response rating” value (crabgrass; [4]) was 10, the “Morningglory plant response rating” value (morningglory; [1]) was 2 and the “Morningglory plant response rating” value (morningglory; [5]) was 3. The “Plant response rating, Morningglory” value (morningglory; [2]) was 7, the “Plant response rating, Morningglory” value (morningglory; [3]) was 0 and the “Morningglory plant response rating” value (morningglory; [6]) was 0. The “Morningglory plant response rating” value (morningglory; [4]) was 0, the “Velvetleaf plant response rating” value (velvetleaf; [1]) was 3 and the “Velvetleaf plant response rating” value (velvetleaf; [5]) was 4. The “Plant response rating, Velvetleaf” value (velvetleaf; [2]) was 4, the “Plant response rating, Velvetleaf” value (velvetleaf; [3]) was 0 and the “Velvetleaf plant response rating” value (velvetleaf; [4]) was 7. For the same compound, the “Blackgrass plant response rating” value (blackgrass; [1]) was 0, the “Blackgrass plant response rating” value (blackgrass; [5]) was 4 and the “Blackgrass plant response rating” value (blackgrass; [7]) was 7. For the same compound, the “Plant response rating, Blackgrass” value (blackgrass; [2]) was 7, the “Plant response rating, Blackgrass” value (blackgrass; [3]) was 3 and the “Blackgrass plant response rating” value (blackgrass; [6]) was 5. For the same compound, the “Blackgrass plant response rating” value (blackgrass; [8]) was 8, the “Blackgrass plant response rating” value (blackgrass; [4]) was 10 and the “B. signalgrass plant response rating” value (surinam grass; [1]) was 0. The “B. signalgrass plant response rating” value (surinam grass; [5]) was 0, the “B. signalgrass plant response rating” value (surinam grass; Postemergence, Rate 250 g/ha, scale 0 to 10, 0 no effect, 10 complete control) was 3 and the “Plant response rating, B. signalgrass” value (surinam grass; [2]) was 5. For the same compound, the “Plant response rating, B. signalgrass” value (surinam grass; [3]) was 1, the “B. signalgrass plant response rating” value (surinam grass; [6]) was 5 and the “B. signalgrass plant response rating” value (surinam grass; [8]) was 9. The “B. signalgrass plant response rating” value (surinam grass; Preemergence, Rate 500 g/ha, scale 0 to 10, 0 is no effect, 10 is complete control) was 10, the “Wild oats plant response rating” value (wild oat; [1]) was 0 and the “Wild oats plant response rating” value (wild oat; [5]) was 2. For the same compound, the “Plant response rating, Wild oats” value (wild oat; [2]) was 5, the “Plant response rating, Wild oats” value (wild oat; [3]) was 0 and the “Wild oats plant response rating” value (wild oat; [6]) was 5. For the same compound, the “Wild oats plant response rating” value (wild oat; [4]) was 9, the “Wheat plant response rating” value (wheat; [1]) was 0 and the “Wheat plant response rating” value (wheat; [5]) was 1. The “Plant response rating, Wheat” value (wheat; [2]) was 7, the “Plant response rating, Wheat” value (wheat; [3]) was 0 and the “Wheat plant response rating” value (wheat; [6]) was 0. The “Wheat plant response rating” value (wheat; [4]) was 5, the “Rape plant response rating” value (rape; [1]) was 1 and the “Rape plant response rating” value (rape; [5]) was 4. For the same compound, the “Plant response rating, Rape” value (rape; [2]) was 9, the “Plant response rating, Rape” value (rape; [3]) was 0 and the “Rape plant response rating” value (rape; [6]) was 1. For the same compound, the “Rape plant response rating” value (rape; [4]) was 9, the “Giant foxtail plant response rating” value (giant foxtail; [1]) was 0 and the “Giant foxtail plant response rating” value (giant foxtail; [5]) was 5. For the same compound, the “Plant response rating, Giant foxtail” value (giant foxtail; [2]) was 9, the “Plant response rating, Giant foxtail” value (giant foxtail; [3]) was 10 and the “Giant foxtail plant response rating” value (giant foxtail; [6]) was 10. The “Giant foxtail plant response rating” value (giant foxtail; [4]) was 10.
